Reference: patent US20030144355A1, “Stabilisation of pigments and polyunsaturated oils and oil concentrates” (priority 1999, published 2003)
Blank lines part the entries; values can stand above or below the molecule they belong to.

Experiments:
[1] = weight-gain oxidative stability test of treated fish oil (induction period), Example 2; type: physicochemical; conditions: for induction period (IP; time before rapid oxygen uptake): stored at about 35° C.
Description: The oxidative stability of oils can be compared by accelerated tests, such as the weight-gain method, where oil samples are stored at elevated temperatures and oxygen atmosphere. The weight increase due to oxygen absorption is measured and plotted against time. At a certain time, depending on the oils resistance to oxidation, weight increase will be rapid, and the time before this happens is noted as the oils induction time (IP).
0.083 moles of amine/amide was added to 95 g of a fish oil, which was progressively heated to 90° C. (A series) or 140° C. (B series) during agitation to dissolve the substances in the oil. After 30 minutes at this temperature, the oil was cooled and filtered.
Three 3-g samples of filtered untreated oil, and three 3-g samples of filtered oil from each of the treatments described in table 1, were placed in identical petri dishes (60 mm, with loose fitting lids) and accurately weighed. The petri dishes were placed in an oven at about 35° C., and the weight increase related to oxygen uptake (oxidation) was recorded by weighing 3 times/week.
The results given in FIG. 4 and in FIG. 5 indicates large differences in stability as measured by induction periods (IP; i.e. the time before rapid oxygen uptake), ranging from 17 days (oils heated to 90° C. or 140° C. without any substance added) and 19 days (untreated oil), to 95 days (oils treated with hexylamine at 90° C., or allylurea at 140° C., or N,N′-dimethylurea at 140° C.).

solubility in oil = type: physicochemical; conditions: ambient temperature
[2] = fish oil treated with 0.083 moles per 95 g oil at 140° C. for 30 minutes

stability in prolonged storage ([1]; fish oil treated at 90° C., experiment continued for another 70 days, about 35° C.): still were stable
induction period (IP; time before rapid oxygen uptake) ([1]; fish oil treated with 0.083 moles per 95 g oil at 90° C. for 30 minutes): 95 days
SMILES: CCCCCCN [A3, Hexylamine]

day of rapid weight increase, prolonged storage ([1]; fish oil treated at 140° C., experiment continued for another 70 days, about 35° C.): 135 days
induction period (IP; time before rapid oxygen uptake) [1, 2]: 95 days
SMILES: CNC(=O)NC [B4, N,N′-dimethylurea]

induction period (IP; time before rapid oxygen uptake) [1, 2]: 95 days
SMILES: C=CCNC(N)=O [allylurea, Allylurea]

solubility in oil (solubility in oil): approx. 1 g per kg oil
SMILES: NC(N)=O [urea]
